Laboratory results as given in patent US20070172815A1 (priority 2000, published 2007).
Each block holds one compound with its values, some of them ahead of it.

Columns and labels:
[1] = molecular target: T1, voltage-gated K+ channel KCNQ2 (Mus musculus, UniProt Q9Z351); test: Thallium influx assay (BTC fluorescence) in HEK-293 cells stably transfected with KCNQ2; assay type: cell-based; settings: 15 μM final; thallium ions (5 mM) and K+ (20 mM); FIG. 3A
T1 construct: expressed in transfected cells
T1 sequence (Q9Z351 whole entry): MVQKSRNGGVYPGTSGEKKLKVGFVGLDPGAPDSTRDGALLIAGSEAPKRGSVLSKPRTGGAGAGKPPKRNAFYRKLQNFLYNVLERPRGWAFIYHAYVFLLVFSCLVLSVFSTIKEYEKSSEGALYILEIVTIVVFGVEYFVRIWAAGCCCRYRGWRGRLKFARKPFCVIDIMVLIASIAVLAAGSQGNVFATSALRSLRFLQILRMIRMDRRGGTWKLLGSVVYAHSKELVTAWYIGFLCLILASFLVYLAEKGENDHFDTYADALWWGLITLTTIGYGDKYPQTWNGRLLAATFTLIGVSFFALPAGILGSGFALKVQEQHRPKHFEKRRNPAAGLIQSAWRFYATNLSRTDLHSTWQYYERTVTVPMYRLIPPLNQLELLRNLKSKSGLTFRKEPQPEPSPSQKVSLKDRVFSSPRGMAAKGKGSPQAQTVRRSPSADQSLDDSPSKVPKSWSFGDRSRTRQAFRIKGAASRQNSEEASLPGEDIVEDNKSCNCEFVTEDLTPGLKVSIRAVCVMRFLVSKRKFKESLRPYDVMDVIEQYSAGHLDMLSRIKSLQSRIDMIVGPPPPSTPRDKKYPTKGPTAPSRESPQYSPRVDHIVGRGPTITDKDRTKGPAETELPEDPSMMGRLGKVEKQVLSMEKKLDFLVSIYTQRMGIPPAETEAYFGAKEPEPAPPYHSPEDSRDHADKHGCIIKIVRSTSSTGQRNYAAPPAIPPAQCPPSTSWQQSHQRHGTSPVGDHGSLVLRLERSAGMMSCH
Experimental: (§1) Once loaded, apamin (5 μl/well of 500 nM stock dissolved in Cl^−-free assay buffer (Table II) or an equivalent volume of Cl^−-free assay buffer) was added. The microtiter plates were then transferred to the plate reader, FLIPR. After, or coincident with exposure to apamin or Cl^−-free assay buffer alone, the cells were exposed to 5 μl/well of a stimulus buffer containing 5 μM ionomycin (Calbiochem) and 7.5 mM Tl2SO4 dissolved in Cl^−-free assay buffer containing 2 mM amaranth and 1 mM tartrazine.
HEK-293 cell line stably transfected with the voltage-gated K^+ channel KCNQ2 was used; • 2. The channel opener used was retigabine (Main, M. J., et al., Mol. Pharmacol., 2000, 58, 253-62) at a final concentration of 15 μM; and • 3. The channel blocker DMP-543 (Zaczek, R., et al., J. Pharmacol. Exp. Ther. 1998, 285, 724-30) used was at a final concentration of 15 μM.
To detect channel blockers the KCNQ2 channels were opened with a combination of thallium ions (5 mM) and K^+ (20 mM). To detect openers the assay was initiated with thallium ions (3 mM).
To detect channel blockers the assay was started by adding 11 μl of stimulus buffer containing: 12.5 mM Tl2SO4 and 50 mM K2SO4 dissolved in the Cl^−-free assay buffer (Table II) containing 2 mM amaranth and 1 mM tartrazine. […]

[2] = tested on: native, untransfected HEK cells; test: Control: BTC fluorescence in native, untransfected HEK cells under identical conditions; assay type: cell-based, human
Source text: A person of ordinary skill in the art will understand that control experiments can be performed to facilitate analysis of the effects of the candidate modulator. Control experiments can be performed using: (1) native, untransfected cells under identical conditions of the methods of the invention; (2) the addition of thallium ions to the test mixture in the absence of stimulus solution; (3) cells under identical conditions of the methods of the invention, but without the candidate modulator of the ion channels, channel-linked receptors or ion transporters added to the test mixture; and/or (4) cells under identical conditions to the methods of the invention, but using known modulators of the ion channels, channel-linked receptors or ion transporters.
as §1

[3] = molecular target: T2, non-selective cation channel vanilloid receptor (VR1) (Homo sapiens, UniProt Q8NER1); test: Thallium influx assay (BTC fluorescence) in CHO cells stably expressing VR1; assay type: cell-based
T2 construct: expressed in transfected cells
T2 sequence (Q8NER1 whole entry): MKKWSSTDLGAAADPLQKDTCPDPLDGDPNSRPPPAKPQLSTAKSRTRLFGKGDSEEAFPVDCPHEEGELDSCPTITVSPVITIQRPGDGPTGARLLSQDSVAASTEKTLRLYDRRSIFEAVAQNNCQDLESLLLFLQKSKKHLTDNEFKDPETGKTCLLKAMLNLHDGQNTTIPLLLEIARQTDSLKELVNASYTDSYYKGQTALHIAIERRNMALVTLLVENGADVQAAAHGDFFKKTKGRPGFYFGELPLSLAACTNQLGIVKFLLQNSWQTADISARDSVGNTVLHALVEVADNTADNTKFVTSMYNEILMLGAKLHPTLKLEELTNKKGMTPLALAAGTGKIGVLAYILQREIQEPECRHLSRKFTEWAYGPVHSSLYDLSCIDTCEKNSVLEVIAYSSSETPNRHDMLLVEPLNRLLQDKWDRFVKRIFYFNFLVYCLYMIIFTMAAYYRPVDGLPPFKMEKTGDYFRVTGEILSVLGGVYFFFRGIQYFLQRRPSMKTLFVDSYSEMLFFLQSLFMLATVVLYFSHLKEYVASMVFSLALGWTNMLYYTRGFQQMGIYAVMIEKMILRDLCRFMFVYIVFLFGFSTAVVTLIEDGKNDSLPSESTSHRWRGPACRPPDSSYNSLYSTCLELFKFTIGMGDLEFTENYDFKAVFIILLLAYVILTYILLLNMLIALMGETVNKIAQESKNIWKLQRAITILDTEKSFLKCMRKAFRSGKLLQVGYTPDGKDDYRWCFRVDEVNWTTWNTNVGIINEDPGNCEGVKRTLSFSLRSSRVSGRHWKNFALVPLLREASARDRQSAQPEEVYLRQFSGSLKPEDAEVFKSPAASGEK
Experimental: (§2) A HEK-293 cell line (obtained from ATCC, Manassas, Va.) stably expressing the small conductance calcium-activated K^+ channel (SK2) was seeded at ~80% confluence in a 384 well microtiter plate, coated with poly-D-lysine plates, containing 20 μl/well low Cl^− cell growth medium. The cells were allowed to incubate overnight at 37 C in a 5% CO2 incubator.
(§3) The cell-containing plates were removed from the incubator and loaded for approximately 15 min with 2 μM BTC-AM (Molecular Probes, Eugene, Oreg.) dissolved in 20 μL/well Cl^−-free assay buffer containing amaranth and tartrazine (the final concentration in the assay is 2 mM amaranth and 1 mM tartrazine). The AM ester of BTC (BTC-AM) is membrane permeant. As it diffuses across the membrane, it is cleaved by cellular esterases, producing a charged, membrane impermeant dye, BTC. These types of dyes and loading mechanisms are well known to those familiar with the art.
The microtiter plates were then transferred to the plate reader, FLIPR.
(§4) All data shown were collected using the FLIPR (Molecular Devices, Sunnyvale, Calif). […] 10 seconds of baseline prior to addition of the stimulus buffer.
All experimental conditions for this example were the same as Example II with the following exceptions: • 1. The cell line CHO stably expressing the non-selective cation channel vanilloid receptor (VR1) was used. • 2. The channel antagonist, capsazepine (Sigma-Aldrich, RBI St Louis, Mo.) was applied at a final concentration of 10 μM; and • 3. The assay was started by adding 5 μl of stimulus buffer containing: 1 μM capsaicin and 7.5 mM Tl2SO4 dissolved in a Cl^−-free assay buffer containing 2 mM amaranth and 1 mM tartrazine.

[4] = molecular target: T3, large conductance calcium-activated K+ channel, Maxi-K (a.k.a. BK, slo) (Homo sapiens, UniProt Q12791); test: Thallium influx assay (BTC fluorescence) in HEK-293 cells stably transfected with Maxi-K; assay type: cell-based
T3 construct: expressed in transfected cells
T3 sequence (Q12791 whole entry): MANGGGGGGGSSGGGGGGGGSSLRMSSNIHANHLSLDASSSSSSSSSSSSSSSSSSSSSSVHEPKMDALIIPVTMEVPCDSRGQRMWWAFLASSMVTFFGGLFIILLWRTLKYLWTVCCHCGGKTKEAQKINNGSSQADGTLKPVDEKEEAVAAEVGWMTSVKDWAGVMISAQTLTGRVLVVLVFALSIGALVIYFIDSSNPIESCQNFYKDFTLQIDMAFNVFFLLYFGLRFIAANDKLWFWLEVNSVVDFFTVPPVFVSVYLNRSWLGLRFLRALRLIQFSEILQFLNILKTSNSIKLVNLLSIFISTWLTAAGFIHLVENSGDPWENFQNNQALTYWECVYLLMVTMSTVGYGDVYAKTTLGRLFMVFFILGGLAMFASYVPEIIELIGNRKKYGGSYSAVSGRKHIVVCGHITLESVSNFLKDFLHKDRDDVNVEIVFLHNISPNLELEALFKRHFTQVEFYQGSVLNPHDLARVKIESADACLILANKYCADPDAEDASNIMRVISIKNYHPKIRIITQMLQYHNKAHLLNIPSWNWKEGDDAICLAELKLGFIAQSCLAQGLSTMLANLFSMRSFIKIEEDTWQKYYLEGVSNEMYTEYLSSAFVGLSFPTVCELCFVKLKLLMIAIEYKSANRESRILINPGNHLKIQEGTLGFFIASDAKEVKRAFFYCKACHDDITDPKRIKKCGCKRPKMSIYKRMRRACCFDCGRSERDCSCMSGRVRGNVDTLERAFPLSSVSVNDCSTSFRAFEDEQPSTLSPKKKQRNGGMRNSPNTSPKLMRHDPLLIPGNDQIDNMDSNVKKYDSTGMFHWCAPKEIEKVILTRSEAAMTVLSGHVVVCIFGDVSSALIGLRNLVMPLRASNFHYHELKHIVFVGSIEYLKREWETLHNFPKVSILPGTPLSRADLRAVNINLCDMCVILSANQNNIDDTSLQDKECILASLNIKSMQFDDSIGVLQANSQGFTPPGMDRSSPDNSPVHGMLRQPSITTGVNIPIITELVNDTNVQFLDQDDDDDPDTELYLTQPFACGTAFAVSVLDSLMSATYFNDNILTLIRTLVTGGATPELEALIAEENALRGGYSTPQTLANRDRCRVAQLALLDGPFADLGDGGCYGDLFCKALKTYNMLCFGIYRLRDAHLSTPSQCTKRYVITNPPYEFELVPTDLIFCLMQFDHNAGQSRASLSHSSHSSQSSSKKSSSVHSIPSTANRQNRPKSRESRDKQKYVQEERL

[5] = molecular target: Muscarinic acetylcholine receptor (Homo sapiens, UniProt P20309)
Sequence of Muscarinic acetylcholine receptor (P20309 whole entry): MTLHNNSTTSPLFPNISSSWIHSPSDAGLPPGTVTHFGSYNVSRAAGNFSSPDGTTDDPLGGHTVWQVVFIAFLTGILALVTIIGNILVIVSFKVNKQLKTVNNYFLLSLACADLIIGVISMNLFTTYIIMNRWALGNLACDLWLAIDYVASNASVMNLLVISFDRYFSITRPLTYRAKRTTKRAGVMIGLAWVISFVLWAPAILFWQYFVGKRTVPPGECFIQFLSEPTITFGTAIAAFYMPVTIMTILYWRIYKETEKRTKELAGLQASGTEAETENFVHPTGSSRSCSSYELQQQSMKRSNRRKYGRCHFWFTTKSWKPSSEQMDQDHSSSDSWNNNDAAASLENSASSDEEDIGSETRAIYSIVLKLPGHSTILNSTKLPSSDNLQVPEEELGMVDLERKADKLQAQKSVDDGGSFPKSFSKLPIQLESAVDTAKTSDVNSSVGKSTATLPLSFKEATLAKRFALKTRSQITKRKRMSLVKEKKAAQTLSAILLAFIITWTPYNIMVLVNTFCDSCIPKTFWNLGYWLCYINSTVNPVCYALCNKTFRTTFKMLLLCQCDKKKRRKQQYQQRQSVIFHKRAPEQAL
Experimental: as §2, §3, §4

[6] = molecular target: T4, small conductance calcium-activated K+ channel (SK2) (Homo sapiens, UniProt Q9H2S1); test: Thallium influx assay (BTC fluorescence, FLIPR) in HEK-293 cells stably expressing SK2; assay type: cell-based; settings: stimulus buffer with 5 μM ionomycin and 7.5 mM Tl2SO4; FIG. 1
T4 construct: expressed in transfected cells
T4 sequence (Q9H2S1 whole entry): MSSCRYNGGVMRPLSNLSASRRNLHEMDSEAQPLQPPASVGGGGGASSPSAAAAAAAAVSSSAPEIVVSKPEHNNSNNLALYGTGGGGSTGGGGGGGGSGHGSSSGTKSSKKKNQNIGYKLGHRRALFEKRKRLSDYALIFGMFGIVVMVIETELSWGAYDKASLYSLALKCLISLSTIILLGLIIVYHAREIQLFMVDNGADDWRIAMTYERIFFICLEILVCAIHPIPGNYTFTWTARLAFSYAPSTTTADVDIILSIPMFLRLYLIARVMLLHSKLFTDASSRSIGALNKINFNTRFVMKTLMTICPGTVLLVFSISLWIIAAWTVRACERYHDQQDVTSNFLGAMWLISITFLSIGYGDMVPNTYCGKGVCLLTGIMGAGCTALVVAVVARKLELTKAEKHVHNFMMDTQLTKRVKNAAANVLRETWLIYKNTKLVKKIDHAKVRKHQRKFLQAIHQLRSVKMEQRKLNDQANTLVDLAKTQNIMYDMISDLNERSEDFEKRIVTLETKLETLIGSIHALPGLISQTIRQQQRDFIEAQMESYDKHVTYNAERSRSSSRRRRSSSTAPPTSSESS
Experimental: as §1

[7] = molecular target: T4, small conductance calcium-activated K+ channel (SK2); test: Thallium efflux assay (FluoZin-1 fluorescence) in SK2 expressing HEK-293 cells; assay type: cell-based; settings: stimulus buffer with 5 μM ionomycin; cells preloaded with thallium; FIG. 5
Experimental: Instead of loading the cells with 2 μM BTC-AM, the cells were loaded with 2 μM FluoZin-1 (Molecular Probes, Eugene, Oreg.)
After loading the cells with FluoZin-1, the cells were exposed to 10 μl/well of Cl^−-free assay buffer containing 7.5 mM Tl2SO4 for 10 minutes at room temperature. This step loads the cells with thallium which interacts with the thallium ion sensitive fluorescent dye FluoZin-1 and increases its fluorescence.
Following loading the cells with thallium ions, the solution bathing the cells was aspirated off, and replaced with 80 μl/well of Cl^−-free assay buffer.

[8] = Example III (Maxi-K) conditions

Compound: O=C1c2ccccc2C(Cc2ccnc(F)c2)(Cc2ccnc(F)c2)c2ccccc21 [DMP-543]
Effect of blocker on the thallium/potassium-induced increase in BTC fluorescence [1]: completely abolished | Effect on the fluorescence of BTC loaded into native, untransfected HEK cells ([2]; Example IV (KCNQ2) conditions): Neither DMP-543 nor retigabine had any effects

Effect of antagonist on the thallium/capsaicin-induced increase in BTC fluorescence ([3]; 10 μM final, FIG. 4): completely abolished | Effect of compound alone on BTC fluorescence in VR1 expressing CHO cells [3]: no effect
Compound: Oc1cc2c(cc1O)CN(C(=S)NCCc1ccc(Cl)cc1)CCC2 [capsazepine]

Effect of compound alone on BTC fluorescence in VR1 expressing CHO cells [3]: small decrease, but no increase | Change in BTC fluorescence upon addition of thallium and agonist ([3]; stimulus buffer with 1 μM capsaicin and 7.5 mM Tl2SO4, FIG. 4): substantial increase
Compound: COc1cc(CNC(=O)CCCC/C=C/C(C)C)ccc1O [capsaicin]

Compound: O=c1[nH]c2cc(C(F)(F)F)ccc2n1-c1cc(C(F)(F)F)ccc1O [NS-1619]
Effect of opener on the thallium-induced increase in BTC fluorescence compared to absence of opener [4]: marked increase | Effect on the fluorescence of BTC loaded into native, untransfected HEK cells [2, 8]: Neither iberiotoxin nor NS-1619 had any effects

Compound: C[N+](C)(C)CC#CCN1CCCC1=O [oxo-M, oxotremorine-M]
Change in BTC fluorescence upon addition of muscarinic receptor agonist [5]: increase in BTC fluorescence

Compound: Iberiotoxin (QFTDVDCSVSKECWSVCKDLFGVDRGKCMGKKCRCYQ; UniProt P24663 1-37, looked up)
Effect of blocker on the thallium/ionomycin/potassium-induced increase in BTC fluorescence ([4]; 100 nM final, stimulus buffer with 15 μM ionomycin, FIG. 2A): completely abolished | Effect on the fluorescence of BTC loaded into native, untransfected HEK cells [2, 8]: Neither iberiotoxin nor NS-1619 had any effects

Compound: C[C@H](CCC(=O)O)C[C@H](C)C[C@H](C)C(=O)/C=C(\O)[C@H](C)C[C@H](C)C/C=C/[C@@H](C)[C@@H](O)[C@@H](C)[C@@H](O)C[C@@H]1CC[C@@](C)([C@H]2CC[C@@](C)([C@@H](C)O)O2)O1 [ionomycin]
Change in BTC fluorescence upon addition of thallium ions plus ionomycin (activation of SK2) [6]: substantial increase | Change in FluoZin-1 fluorescence upon addition of ionomycin (thallium efflux via activated SK channel) [7]: decrease in fluorescence
